Measured values reported in patent US20210161894A1, “Compositions and Methods for Modulating Liver Endothelial Cell Fenestrations” (priority 2017, published 2021).
“Also recorded” adds a separate entry of the source.

Columns and labels:
[1] = system: lipid rafts and fenestrations of LSECs; assay: 3D-SIM study of lipid rafts and fenestrations; assay type: cell-based
Description: Sieve plates containing fenestrations are intercalated between thickened areas of membrane (lipid rafts).

fenestrations = settings: young mice; cited from earlier work
[2] = system: isolated LSECs (liver sinusoidal endothelial cells); assay: SEM of fenestrations in isolated LSECs from young and old mice after 30 min drug treatment (second Example 7); assay type: cell-based; settings: for Diameter / Frequency / Porosity: 30 min; for effect on porosity and fenestration frequency (summary in words): young and old LSECs
Description: 3-4 and 18-24 month old male C57/B16 mice were obtained from the Animal Resource Centre in Perth, Western Australia. Animals were housed at the ANZAC Research Institute animal house on a 12 hour light/dark cycle and provided with ad libitum access to food and water. Mice were not fasted prior to euthanasia by a single intraperitoneal injection with 100 mg/kg ketamine and 10 mg/kg xylazine in saline. The study was approved by the Animal Welfare Committee of the Sydney Local Health District and was performed in accordance with the Australian Code of Practice for the care and use of animals for scientific research (AWC 2016/009). All information provided accords with the ARRIVE guidelines.
As described previously (Cogger et al. J e52698, 2015 https://dx.doi.org/10.3791/52698), mouse LSEC isolation was performed by perfusion of the liver with collagenase. Non-parenchymal cells were removed by a two-step Percoll gradient and Kupffer cells were removed by selective adherence to plastic. LSECs (seeded at 0.5×10^6 cells/cm2) were cultured (37° C., 5% CO2) in serum free RPMI-1640 for 3.5 hours before use.
Cells were treated with various agents for 30 minutes to determine effects on fenestrations. All agents were dissolved in serum-free RPMI media. All experiments were performed in triplicate for both young and old mice. Actin was disrupted with 0.5 μg/ml cytochalasin D and lipid rafts were disrupted with 3.6 and 1.8 μg/ml 7-keocholesterol; dosages were selected. […] The serotonergic/phospholipase C pathway was promoted with DOI (0.1 μg/ml) and endothelin receptors were inhibited by bosentan (550, 55 and 5.5 ng/ml) Death receptor 4 was promoted with TRAIL (100, 10. 1, 0.1 and 0.01 ng/ml) and NAD+ was promoted with NMN (5000, 50, 10, 1 and 0.1 μg/ml).
SEM was performed as previous described (Corbin et al J Biol Chem 274: 13729-13732, 1999.). LSECs were fixed in 2.5% glutaraldehyde in 0.1M sodium cacodylate buffer, osmicated, dehydrated in graded ethanol and hexamethyl disilazane, mounted on stubs, sputter coated with platinum and examined using a JEOL 6380 Scanning Electron Microscope (JEOL Ltd, Japan). Images at 10,000× magnification were collected by a blinded observer and used to measure fenestration diameter and LSEC porosity using Image J (NIH, MD, USA). […] Fenestrations less than 30 nm and gaps more than 300 nm were excluded from analysis. Porosity was defined as the percentage of the cell membrane covered with fenestrations. Frequency was defined at the number of fenestrations per […].
Individual specifications of analyses are described in figures legends. All data are presented as mean±SD. Experimental design and analysis were performed in accordance with the APS guidelines described in Curran-Everett and Benos DJ. Adv Physiol Educ 31: 295-298, 2007.

LSEC fenestrations [3] = assay: SEM of LSEC fenestrations after drug treatments (Example 2, FIGS. 1-6); assay type: cell-based, mice; settings: for change in fenestration porosity / change in fenestration frequency: Cytochalasin D 0.5 μg/ml, Amlodipine 20 ng/ml; for sieve plates and fenestration density on SEM images: young and old mice
Description: Young and old C57B16 mice (n=3 young mice, age 3-4 and n=3 old mice, 20-24 months) were maintained under full SPF conditions and with ad libitum feeding. The study had the approval of the Sydney South West Area Health Service Animal Welfare Committee. Mice at 20-24 months are senescent. Animals were sacrificed withCO2 and livers immediately perfusion-fixed via a 23G needle inserted into the portal vein. Liver tissue was fixed with1% glutaraldehyde/4% para-formaldehyde in PBS (0.1M sucrose).
Drug treatments and dosages (shown superimposed on their corresponding image in FIGS. 1, and 2) were performed by incubating liver cells at 37° C., 5% CO2 for 30 mins using RPMI with or without dissolved drug. All images were taken by two blinded researchers using a SEM at 10,000×, scale bars of 1 μm are shown.
Each data point represents the average±SD of 8 images (as shown in FIGS. 1 and 2), 616-3312 fenestration raw data points were collected per treatment.

[4] = system: actin cytoskeleton of LSECs; assay: dSTORM imaging of the actin cytoskeleton; assay type: cell-based; settings: young mice
Description: dSTORM imaging was performed using an in-house microscope. LSECs were prepared for dSTORM by washing twice with PBS and fixation with 4% paraformaldehyde for 30 mins. Then LSECs were washed twice with PBS, permeabilised with Triton-X for 90 secs, blocked with 5% bovine serum albumin for 1 hour, and stained with Alexa Flour phalloidin 488 (1:40) for 20 min prior to imaging. Cells were washed using PBS with 0.1% Tween and placed in OxEA buffer (30) for dSTORM visualisation and image capture. The dSTORM used 488 and 647 nm excitation from diode-pumped lasers (Coherent Inc, CA, USA). Excitation was delivered via a 1.49NA 60× oil-immersion TIRF objective (Olympus Australia, AUS). Fluorescence was captured on two separate sCMOS cameras (Imaging Development Systems GmbH, Germany). Data was collected for up to 40,000 images at around 75 fps. 5-8 whole cell images were collected by a blinded observer for each treatment dosage and processed using rapidSTORM open source software (Wolter et al. Nat Methods 9: 1040, 2012.). Each image was examined for all sieve plates and actin structures. Densitometry measurements were performed using 5-8 dSTORM images with data analysis performed using Image J software (NIH, MD, USA).

LSEC fenestrations [5] = assay: Acute defenestration by a single intraperitoneal injection of P407; assay type: in vivo
Description: Acute loss of fenestrations, in the absence of other ageing changes, causes dyslipidaemia and insulin resistance Ageing is a complex process leading to impairment of many cellular pathways. To test the hypothesis that age-related loss of fenestrations contributes to dyslipidaemia and insulin resistance, the inventors aimed to evaluate the impact of acute defenestration in the absence of other ageing changes. […] P407 administration caused a 10-fold increase in circulating lipoproteins, especially triglycerides and chylomicron remnants, while preventing the transfer of small chylomicrons across the LSEC.

[6] = old mice, DOI 0.1 μg/ml, 7KC 9 μM
[7] = old mice, DOI 0.1 μg/ml, 7KC 9 μM, Bosentan 0.1 μM, Sildenafil 300 ng/ml
[8] = young mice, DOI 0.1 μg/ml, 7KC 9 μM

Q: What does the source list for `CC(C)CCC[C@@H](C)[C@H]1CC[C@H]2[C@@H]3C(=O)C=C4C[C@@H](O)CC[C@]4(C)[C@H]3CC[C@]12C` [7-ketocholesterol]?
A: effect on fenestrations and lipid rafts [1]: increased fenestrations and decreased rafts; fenestration porosity and diameter (previously reported) (fenestrations): increase fenestration porosity in young mice without any significant effects on fenestration diameter; gap formation [2]: Gap formation was apparent; increase in fenestration diameter [2]: 15 nm; fenestrations in LSECs from old mice ([2]; old mice): increased fenestrations; Diameter ([2]; old mice, 1.8 μg/ml): 154.41 ± 13.07 nm; Frequency ([2]; old mice, 1.8 μg/ml): 2.65 ± 0.94 no/area; Porosity ([2]; old mice, 1.8 μg/ml): 5.19 ± 0.95 %; Diameter ([2]; old mice, 3.6 μg/ml): 139.46 ± 17.45 nm; Frequency ([2]; old mice, 3.6 μg/ml): 3.15 ± 0.08 no/area; Porosity ([2]; old mice, 3.6 μg/ml): 5.34 ± 1.17 %; effect on porosity and fenestration frequency (summary in words) [2]: significant increases in porosity and fenestration frequency in both young and old LSECs; fenestration diameter ([2]; young and old mice, P<0.05): increased fenestration diameter in both young and old mice; Diameter ([2]; young mice, 1.8 μg/ml): 142.35 ± 8.02 nm; Frequency ([2]; young mice, 1.8 μg/ml): 3.59 ± 0.78 no/area; Porosity ([2]; young mice, 1.8 μg/ml): 6.10 ± 1.82%; Diameter ([2]; young mice, 3.6 μg/ml): 148.59 ± 7.70 nm; Frequency ([2]; young mice, 3.6 μg/ml): 4.36 ± 0.93 no/area; Porosity ([2]; young mice, 3.6 μg/ml): 8.03 ± 1.37 %; shift in frequency distribution of fenestration diameter ([2]; young mice, NMN 5000 μg/ml, 7-ketocholesterol 3.6 μg/ml): decreased 30-125 nm diameter fenestrations and an increase in 150-3000 sized fenestrations; diameter of fenestrations observed on SEM images (LSEC fenestrations [3]): Increased diameter of fenestrations; change in fenestration diameter (LSEC fenestrations [3]; old mice, 7KC 4.5 μM, Bosentan 0.1 μM, Sildenafil 300 ng/ml, TRAIL 1 μg/ml): Increased fenestration diameter; change in fenestration porosity (LSEC fenestrations [3]; [6]): increased porosity; change in fenestration frequency (LSEC fenestrations [3]; [7]): increased; sieve plates and fenestration density on SEM images (LSEC fenestrations [3]): promoted increased fenestrations but limited clearly definable sieve plates; change in fenestration porosity (LSEC fenestrations [3]; [8]): increased porosity

Q: Which “effect on fenestrations and lipid rafts” value [1] does the source give for `C=C1[C@@H](C)[C@H]2[C@H](Cc3ccccc3)NC(=O)[C@]23[C@H](OC(C)=O)/C=C/[C@@](C)(O)C(=O)[C@@H](C)C/C=C/[C@H]3[C@@H]1O` [Cytochalasin D, cytochalasin D] here?
A: increased fenestrations and decreased rafts

Q: What about the “fenestration porosity and diameter (previously reported)” value (fenestrations) of the same compound?
A: increase fenestration porosity in young mice without any significant effects on fenestration diameter

Q: And the “fenestrations in LSECs from old mice” value ([2]; old mice)?
A: increased fenestrations

Q: And the Diameter ([2]; old mice, 0.5 μg/ml)?
A: 117.04 ± 9.26 nm

Q: And the Frequency ([2]; old mice, 0.5 μg/ml)?
A: 3.39 ± 1.07 no/area

Q: What about the Porosity ([2]; old mice, 0.5 μg/ml) of the same compound?
A: 3.82 ± 1.01%

Q: What about the “effect on porosity and fenestration frequency (summary in words)” value [2] of the same compound?
A: significantly increased frequency but not porosity in young and old LSECs

Q: And the “Change in Porosity, Young” value ([2]; young mice, 0.5 μg/ml)?
A: ↑ (ns)

Q: What about the Diameter ([2]; young mice, 0.5 μg/ml) of the same compound?
A: 126.78 ± 10.68 nm

Q: What about the Frequency ([2]; young mice, 0.5 μg/ml) of the same compound?
A: 4.57 ± 0.51 no/area

Q: And the Porosity ([2]; young mice, 0.5 μg/ml)?
A: 6.05 ± 0.62 %

Q: And the increase in porosity ([2]; young mice, not significant (P=0.08))?
A: 33%

Q: And the “sieve plate grouping on SEM images” value (LSEC fenestrations [3]; old mice)?
A: greater fenestration sieve plate grouping

Q: What about the “change in fenestration porosity” value (LSEC fenestrations [3]; [6]) of the same compound?
A: increased porosity

Q: What about the “change in fenestration frequency” value (LSEC fenestrations [3]; [7]) of the same compound?
A: increased

Q: What about the “sieve plates and fenestration density on SEM images” value (LSEC fenestrations [3]) of the same compound?
A: promoted increased fenestration density and maintained sieve plate fenestration clustering

Q: And the “change in fenestration frequency” value (LSEC fenestrations [3]; young mice, Bosentan 0.1 μM, Sildenafil 300 ng/ml)?
A: increased

Q: And the “change in fenestration porosity” value (LSEC fenestrations [3]; [8])?
A: increased porosity

Q: And the “actin changes with drug treatments (dSTORM)” value [4]?
A: Disordered actin structure; also recorded: Dense actin plasma membrane; also recorded: Stress fibres; also recorded: Single isolated fenestrations

Q: What about the “actin changes with drug treatments (dSTORM)” value ([4]; listed as cytochalasin D) of the same compound?
A: extensive actin staining of the plasma membrane; also recorded: loss of smooth fibres encircling the cytoplasm

Q: Which “increase in circulating lipoproteins” value (LSEC fenestrations [5]; especially triglycerides and chylomicron remnants) does the source give for poloxamer 407 [P407] here?
A: 10 fold

Q: And the “passage of insulin across the LSEC” value (LSEC fenestrations [5]; in vivo)?
A: prevented the passage of insulin across the LSEC

Q: What about the loss of fenestrations (LSEC fenestrations [5]; within 24 hours of a single intraperitoneal injection) of the same compound?
A: 30-80%
